Experimental data published in article PMC5884648, “Relationship between the agonist activity of synthetic ligands of TRAIL-R2 and their cell surface binding modes” (Oncotarget, 2018).
*1 amine or outer side, *2 acyl side, *3 side chain or, on linkers, in order; H or OH if unused. Where a SMILES comes first, the peptide text is derived from it. Bridges are numbered along the chain shown (N, C = ends). Roman numbers before positions name the chains, in order. The star is where a group is joined. X1 = CN(CCCC(=O)NC(CCC(=O)[*:1])CCC(=O)[*:2])C(=O)c1ccccc1-c1c2ccc(=N)c(S(=O)(=O)O)c-2oc2c(S(=O)(=O)O)c(N)ccc12; X3 = N=c1ccc2c(-c3cc(C(=O)*)ccc3C(=O)O)c3ccc(N)c(S(=O)(=O)O)c3oc-2c1S(=O)(=O)O; X2 = NC(CCC(=O)[*:1])CCC(=O)[*:2]

Experiments:
[1] = biological target: T1, human TRAIL-R2 (Homo sapiens, UniProt O14763); test: Surface plasmon resonance on sensor-immobilized TRAIL-R2; format: binding; conditions: for koff / kon: 25° C, Langmuir model
T1 construct: purchased Enzo Life Sciences
T1 sequence (O14763 56-440): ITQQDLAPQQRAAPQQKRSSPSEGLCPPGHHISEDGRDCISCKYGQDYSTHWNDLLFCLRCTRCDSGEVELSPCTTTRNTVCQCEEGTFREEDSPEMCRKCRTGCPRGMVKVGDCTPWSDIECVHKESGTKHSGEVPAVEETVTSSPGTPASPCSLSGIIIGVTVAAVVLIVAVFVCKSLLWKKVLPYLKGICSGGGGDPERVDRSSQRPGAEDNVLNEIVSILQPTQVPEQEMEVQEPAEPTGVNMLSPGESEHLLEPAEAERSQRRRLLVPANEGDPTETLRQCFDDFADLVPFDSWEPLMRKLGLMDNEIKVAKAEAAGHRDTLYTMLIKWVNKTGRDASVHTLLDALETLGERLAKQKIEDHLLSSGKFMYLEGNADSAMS
Protocol: SPR assays were performed on a Biacore T200™, at 25° C. The running buffer was HBS-EP [10 mM HEPES (pH 7.4) containing 0.15 M NaCl, 3.4 mM EDTA and 0.005% (v/v) Tween P20]. The human TRAIL-R2 (Enzo Life Sciences, Farmingdale, NY, USA) receptor was immobilized on a sCM5 sensor chip (GE Healthcare) using the standard amine coupling procedure. The receptors were diluted in 10 mM acetate buffer (pH 5.0) at a concentration of 5 μg/mL. The TRAIL-R2 immobilization level on the sensor chip was 430 RU. Peptides were injected at a flow rate of 5 μL/min for 120 s and allowed to dissociate for an additional 420 s. Surfaces were then regenerated for 5 s with 25 mM HCl. All binding curves were double-referenced (i.e. subtraction of the data of the empty flow cell followed by the subtraction of the data from a running buffer injection cycle).
(§1) Double-referenced SPR binding curves sets were fitted globally using the BIAevaluation 4.1.1 (GE Healthcare Biacore) or TraceDrawer (Ridgeview Diagnostics AB, Uppsala, Sweden) softwares. The signal recorded with the LigandTracer on an empty spot or slide was subtracted from that recorded on cell-carrying slides. The resulting binding curves were analyzed by kinetic distribution analysis using the tool Interaction Map (Ridgeview Diagnostics AB, Uppsala, Sweden). Interaction Map decomposes the kinetic curve recorded for the binding of a homogeneous ligand to a heterogeneous group of targets into its different components. Results are represented as interaction maps (kon versus koff, log scale), where the color of each populated area represents its degree of contribution to the kinetic curve (red = high contribution, blue = low contribution).

[2] = test system: HCT116 cells; test: Cell viability MTS assay, HCT116; format: cell-based, human; conditions: 24 hours
Protocol: (§2) BJAB, Jurkat and HCT116 cells (10^5 cells/well) were cultured in 100 µL of culture medium in 96-flat bottom well plates. The next day, cells were treated with the indicated concentrations of the different TRAILmin/DR5 peptides. After 24 hours of treatment cell viability measurement was performed by the MTS assay according to the manufacturer specification (Promega Corporation, Madison, WI, USA).

[3] = biological target: T2, TRAIL-R2 expressed on HCT116 cells (Homo sapiens, UniProt O14763); test: LigandTracer real time binding on living HCT116 cells; conditions: HCT116 cells expressing TRAIL-R2
T2 construct: we used BJAB, HCT116 and Jurkat that express a natural level of TRAIL-R2 receptors; endogenous in cells; host or cells: HCT116
T2 sequence (O14763 56-440): as above
Protocol: The adherent cells HCT116-TRAIL-R2-DEF and HCT116 cells were directly plated on glass slides (Ø20 mm) (10^6 cells/well). The cells in suspension (BJAB and BJAB-TRAIL-R2-DEF) were covalently adhered to glass slides coated with poly-L-lysine (0.1% v/v) (Sigma Aldrich, Saint Louis, MO, USA). The adhesion was strong enough for measurement during 10h. After 24 hours, the slides were fixed with superglue at different locations of a Petri dish, which was inserted in the LigandTracer Green instrument (Ridgeview Instrument AB, Uppsala, Sweden). An empty spot or empty glass slide fixed to the Petri dish was used to record the background signal. This set-up allowed the simultaneous monitoring of the binding of a given peptide to different cell-carrying glass slides fixed to the dish. […] The fluorescence signal is recorded over time when the slide is out of the solution, and therefore corresponds to the amount of bound peptide. […]
Double-referenced SPR binding curves sets were fitted globally using the BIAevaluation 4.1.1 (GE Healthcare Biacore) or TraceDrawer (Ridgeview Diagnostics AB, Uppsala, Sweden) softwares. The signal recorded with the LigandTracer on an empty spot or slide was subtracted from that recorded on cell-carrying slides. The resulting binding curves were analyzed by kinetic distribution analysis using the tool Interaction Map (Ridgeview Diagnostics AB, Uppsala, Sweden). […]

[4] = biological target: T3, TRAIL-R2 on HCT116 cells (Homo sapiens, UniProt O14763); test: Flow cytometry staining with fluorescent peptides, HCT116; format: binding
T3 construct: we used BJAB, HCT116 and Jurkat that express a natural level of TRAIL-R2 receptors; endogenous in cells; host or cells: HCT116
T3 sequence (O14763 56-440): as above
Protocol: (§3) 10^6 cells were washed in PBS containing 2% FCS and then incubated at 4° C for 30 min with an anti-TRAIL-R2 antibody (clone BK9 Diaclone, Besançon, France) according to concentration recommended by the manufacturer or with fluorescent peptides at the concentration of 1 µM. After two washes in PBS-2% FBS, TRAIL-R2 expression was monitored by flow cytometry (Guava easyCyte™, Merck Milipore, Darmstadt, Germany) and data were analyzed with InCyte Software (Merck Milipore).

[5] = biological target: TRAIL-R2 expressed on BJAB cells (Homo sapiens, UniProt O14763); test: LigandTracer real time binding on living BJAB cells; design: expressed in transfected cells
Sequence of TRAIL-R2 expressed on BJAB cells (O14763 56-440): as above
Protocol: The adherent cells HCT116-TRAIL-R2-DEF and HCT116 cells were directly plated on glass slides (Ø20 mm) (10^6 cells/well). The cells in suspension (BJAB and BJAB-TRAIL-R2-DEF) were covalently adhered to glass slides coated with poly-L-lysine (0.1% v/v) (Sigma Aldrich, Saint Louis, MO, USA). The adhesion was strong enough for measurement during 10h. After 24 hours, the slides were fixed with superglue at different locations of a Petri dish, which was inserted in the LigandTracer Green instrument (Ridgeview Instrument AB, Uppsala, Sweden). An empty spot or empty glass slide fixed to the Petri dish was used to record the background signal. This set-up allowed the simultaneous monitoring of the binding of a given peptide to different cell-carrying glass slides fixed to the dish. Three mL of solution (culture medium without or with fluorescent peptide) were added to the dish. In the LigandTracer instrument, the dish is tilted and rotates. Consequently the 3 mL solution covers only the lower part of the dish and each cell-carrying slide is alternatively in contact and out of contact with the solution (at intervals of 8 to 16 s). The fluorescence signal is recorded over time when the slide is out of the solution, and therefore corresponds to the amount of bound peptide. The solution in the dish was initially the culture medium (∼30 min) to provide a stable base line. The fluorescent peptide was then added in increasing doses (10, 30 and 90 nM) every two to three hours. Finally the peptide-containing sample was replaced with fresh medium and the dissociation of the peptide from the cells was followed overnight. The measurements were conducted at room temperature (approximately 20° C).
as §1

[6] = test system: BJAB cells; test: Cell viability MTS assay, BJAB; format: cell-based, human; conditions: 24 hours
Protocol: as §2

[7] = biological target: T4, TRAIL-R2 on BJAB cells (Homo sapiens, UniProt O14763); test: Flow cytometry staining with fluorescent peptides, BJAB; format: binding
T4 construct: expressed in transfected cells
T4 sequence (O14763 56-440): as above
Protocol: as §3

[8] = test system: Jurkat cells; test: Cell viability MTS assay, Jurkat; format: cell-based, human; conditions: 24 hours
Protocol: as §2

[9] = TRAIL-R2 surface 1, one:one interaction model
[10] = TRAIL-R2 surface 2, one:one interaction model

Structure (SMILES)	koff ([1]; SPR) [s⁻¹]	kon ([1]; SPR) [M⁻¹ s⁻¹]	apoptosis induction in HCT116 cells [2]	cell surface binding [3]	binding by flow cytometry ([4]; HCT116 cells deficient for TRAIL-R2, peptide 1 µM)	binding by flow cytometry ([4]; HCT116 cells expressing TRAIL-R2, peptide 1 µM)	cell surface binding ([5]; BJAB cells deficient for TRAIL-R2)	cell surface binding ([5]; BJAB cells expressing TRAIL-R2)	fluorescent signal reached ([5]; BJAB cells that expressed TRAIL-R2, 10, 30 and (f1d) 90 nM)	apoptosis induction in BJAB cells [6]	binding by flow cytometry ([7]; BJAB cells deficient for TRAIL-R2, peptide 1 µM)	binding by flow cytometry ([7]; BJAB cells expressing TRAIL-R2, peptide 1 µM)	KD of 2d smaller than KD of 1d ([1]; SPR, ratio of KD 1d to 2d)	Rmax [1, 9]	Rmax [1, 10]	apoptosis induction in Jurkat cells [8]
CC[C@H](C)[C@@H]1NC(=O)[C@H](CCCNC(=N)N)NC(=O)[C@H](CC(N)=O)NC(=O)[C@H](CC(=O)O)NC(=O)[C@H](CC(C)C)NC(=O)[C@@H](NC(=O)[C@H](CC(=O)O)NC(=O)[C@H](Cc2c[nH]c3ccccc23)NC(C)=O)CSSC[C@@H](C(=O)N[C@H](C(=O)N[C@@H](CCCCNC(=O)CCC(CCC(=O)NCCCC[C@H](NC(=O)[C@@H](NC(=O)[C@@H]2CSSC[C@H](NC(=O)[C@H](CC(=O)O)NC(=O)[C@H](Cc3c[nH]c4ccccc34)NC(C)=O)C(=O)N[C@@H](CC(C)C)C(=O)N[C@@H](CC(=O)O)C(=O)N[C@@H](CC(N)=O)C(=O)N[C@@H](CCCNC(=N)N)C(=O)N[C@@H]([C@@H](C)CC)C(=O)NCC(=O)N[C@@H](CCCNC(=N)N)C(=O)N[C@@H](CCCNC(=N)N)C(=O)N[C@@H](CCC(N)=O)C(=O)N2)C(C)C)C(=O)N[C@@H](CC(C)C)C(N)=O)NC(=O)CCCN(C)C(=O)c2ccccc2-c2c3ccc(=N)c(S(=O)(=O)O)c-3oc3c(S(=O)(=O)O)c(N)ccc23)C(=O)N[C@@H](CC(C)C)C(N)=O)C(C)C)NC(=O)[C@H](CCC(N)=O)NC(=O)[C@H](CCCNC(=N)N)NC(=O)[C@H](CCCNC(=N)N)NC(=O)CNC1=O (stereo partly drawn) [f1d] (I: Ac-WDCLDNRIGRRQCVKL-NH2 / II: Ac-WDCLDNRIGRRQCVKL-NH2; disulfide I:3-I:13, II:3-II:13; linker I:15-II:15 via X1; N-terminus and C-terminus assumed)	0.0014	22000	scarcely induced their apoptosis	bound weakly	not	bound	weak signals	strong binding	> 25	induced apoptosis	not	bound				
CC[C@H](C)[C@@H]1NC(=O)[C@H](CCCNC(=N)N)NC(=O)[C@H](CC(N)=O)NC(=O)[C@H](CC(=O)O)NC(=O)[C@H](CC(C)C)NC(=O)[C@@H](NC(=O)[C@H](CC(=O)O)NC(=O)[C@H](Cc2c[nH]c3ccccc23)NC(C)=O)CSSC[C@@H](C(=O)N[C@H](C(=O)N[C@@H](CCCNC(=N)N)C(=O)N[C@@H](CC(C)C)C(N)=O)C(C)C)NC(=O)[C@H](CCC(N)=O)NC(=O)[C@H](CCCNC(=N)N)NC(=O)[C@H](CCCCNC(=O)CCC(N)CCC(=O)NCCCC[C@@H]2NC(=O)CNC(=O)[C@H]([C@@H](C)CC)NC(=O)[C@H](CCCNC(=N)N)NC(=O)[C@H](CC(N)=O)NC(=O)[C@H](CC(=O)O)NC(=O)[C@H](CC(C)C)NC(=O)[C@@H](NC(=O)[C@H](CC(=O)O)NC(=O)[C@H](Cc3c[nH]c4ccccc34)NC(C)=O)CSSC[C@@H](C(=O)N[C@H](C(=O)N[C@@H](CCCNC(=N)N)C(=O)N[C@@H](CC(C)C)C(N)=O)C(C)C)NC(=O)[C@H](CCC(N)=O)NC(=O)[C@H](CCCNC(=N)N)NC2=O)NC(=O)CNC1=O (stereo partly drawn) [2d] (I: Ac-WDCLDNRIGKRQCVRL-NH2 / II: Ac-WDCLDNRIGKRQCVRL-NH2; disulfide I:3-I:13, II:3-II:13; linker I:10-II:10 via X2; N-terminus and C-terminus assumed)	0.00018	1.5e+06	strong resistance							underwent apoptosis			approximately 400 fold	33	12	strong resistance
CC[C@H](C)[C@@H]1NC(=O)[C@H](CCCNC(=N)N)NC(=O)[C@H](CC(N)=O)NC(=O)[C@H](CC(=O)O)NC(=O)[C@H](CC(C)C)NC(=O)[C@@H](NC(=O)[C@H](CC(=O)O)NC(=O)[C@H](Cc2c[nH]c3ccccc23)NC(C)=O)CSSC[C@@H](C(=O)N[C@H](C(=O)N[C@@H](CCCCN)C(=O)N[C@@H](CC(C)C)C(N)=O)C(C)C)NC(=O)[C@H](CCC(N)=O)NC(=O)[C@H](CCCNC(=N)N)NC(=O)[C@H](CCCNC(=N)N)NC(=O)CNC1=O [1m] (Ac-WDCLDNRIGRRQCVKL-NH2; disulfide 3-13; N-terminus and C-terminus assumed)	0.0026	5300												33	11	
CC[C@H](C)[C@@H]1NC(=O)[C@H](CCCNC(=N)N)NC(=O)[C@H](CC(N)=O)NC(=O)[C@H](CC(=O)O)NC(=O)[C@H](CC(C)C)NC(=O)[C@@H](NC(=O)[C@H](CC(=O)O)NC(=O)[C@H](Cc2c[nH]c3ccccc23)NC(C)=O)CSSC[C@@H](C(=O)N[C@H](C(=O)N[C@@H](CCCNC(=N)N)C(=O)N[C@@H](CC(C)C)C(N)=O)C(C)C)NC(=O)[C@H](CCC(N)=O)NC(=O)[C@H](CCCNC(=N)N)NC(=O)[C@H](CCCCN)NC(=O)CNC1=O [2m] (Ac-WDCLDNRIGKRQCVRL-NH2; disulfide 3-13; N-terminus and C-terminus assumed)	0.016	3600														
CC[C@H](C)[C@@H]1NC(=O)[C@H](CCCNC(=N)N)NC(=O)[C@H](CC(N)=O)NC(=O)[C@H](CC(=O)O)NC(=O)[C@H](CC(C)C)NC(=O)[C@@H](NC(=O)[C@H](CC(=O)O)NC(=O)[C@H](Cc2c[nH]c3ccccc23)NC(C)=O)CSSC[C@@H](C(=O)N[C@H](C(=O)N[C@@H](CCCCNC(=O)c2ccc(C(=O)O)c(-c3c4ccc(=N)c(S(=O)(=O)O)c-4oc4c(S(=O)(=O)O)c(N)ccc34)c2)C(=O)N[C@@H](CC(C)C)C(N)=O)C(C)C)NC(=O)[C@H](CCC(N)=O)NC(=O)[C@H](CCCNC(=N)N)NC(=O)[C@H](CCCNC(=N)N)NC(=O)CNC1=O [f1m] (Ac-WDCLDNRIGRRQCVK(X3)L-NH2; disulfide 3-13; N-terminus and C-terminus assumed)	0.0014	14000						weak binding		did not induce apoptosis						
